Data from EP0998939A1, “Chalcone plant extracts for use in therapy” (THE SCHOOL OF PHARMACY, UNIVERSITY OF LONDON, priority 1998, dated 2000).
Values after ≈ are worked out from the molar mass of the structure shown.

Columns and labels:
Blood platelets = assay: Inhibition of blood platelet aggregation (TPA or ADP induced) in platelet rich plasma; format: cell-based, human; conditions: for Percentage Inhibition of ADP Induced Aggregation: ADP 6.4 µg; for Percentage Inhibition of TPA Induced Aggregation: TPA 0.5µg
Procedure: Blood platelets release inflammatory mediators in response to an external stimulus, which affect the proliferation of the cells, which is an important part of the disease psoriasis. • 1. Male human blood was collected via venipucture of the forearm directly in to anticoagulant buffer, from healthy donors who had denied any medication for two weeks, and centrifuged at 1000rpm for 20 minutes at room temperature. • 2. The supernatant was employed as platelet rich plasma (PRP). Platelet poor plasma (PPP) was obtained by centrifuging 1ml of PRP at 11,000 rpm for 10 minutes. • 3. Inhibition of platelet aggregation was tested by adding 2.5µl of a known concentration (containing 10µg or 50µg) of the test compound to a 500µl sample ofPRP for one minute. An aggregation agent was then added as a solution to the sample in a 2.5µl quantity (containing TPA 0.5,µg or ADP 6.4 µg). Aggregation was measured using a dual channel aggregometer . • 4. Aggregation was taken as the % change in light transmission compared to the maximum change produced by TPA or ADP plus the control solution. PRP was used as a standard for zero light transmission and PP for 100% light transmission.

[1] = test system: swiss 3T3 mouse fibroblast cells; assay: Cell culture 3[H] thymidine assay, Example 6.3 inhibition of TPA induced proliferation (24 hours prior incubation with compound); format: cell-based; conditions: compound 24 hours before compound + 0.5µM TPA
Procedure: (§1) Cells used were swiss 3T3 mouse fibroblast cells • 1. 6 x 24 well plates were required for each experiment. • 2. Cells were removed from the standard tissue culture flask using a 1% solution of EDTA and resuspended in 10 ml of media and pipetted off into a falcon tube. • 3. The cells were then spun for 5 minutes at about 2,000rpm. • 4. The existing media was removed, and the cells again resuspended in 10ml of 10% foetal calf serum (FCS) and vortexed. • 5. The 10ml of suspension was then added to 140ml of media and mixed in a sterile jar. 1ml of the media cell suspension was then placed into each well and the plates incubated until confluent, three days .
(§2) • 1. [PCl]Cells were dosed with the test compounds (as specified below) 2 days prior to the addition of 3 [H]thymidine. The cells could only be dosed with a 0.5% solution, 5µl test solution in 1ml cellsuspension i.e. 5µl in 1ml, (TPA - 0.5µM). • 2. 0.5µl of 3[H] thymidine was added per well, therefore 72µl was added to 144µl of media (1%F.C.S.) to dose the corresponding six plates. • 3. 100µl of the media was taken to measure the measure the radioactive dose […], and added to 4ml of scintillation fluid. • 4. The radioactive media was then transferred to sterile specimen tubes and dosed with the test compounds before adding to the cells. • 5. After four hours ofbeing pulsed with radiolabelled thymidine (0.5µCi/ml) the media was removed and washed down the sink. • 6. The cells were washed twice with ice cold phosphate buffered saline (PBS), 0.5ml per well, and incubated for 30 min using ice cold 5% trichloroacetic acid (TCA) ( 1ml) per well at room temperature. • 8. The TCA was then removed and another 1ml of 5% TCA was added for 5 minutes. After the TCA was removed and 0.3NaOH and 0.1% sodium dodecyl sulphate added to each well for 30 minutes (1ml/well). • 9. The contents of each well was added to scintillation vials containing 4ml of scintillation fluid and each sample counted for four minutes using a scintillation counter. Three different assays were carried out using this protocol; • 6.1. Cytotoxicity testing of the compounds. After 48 hours of incubation and the cells were confluent a predetermined quantity of the test compounds was added to the cells. • 6.2. Inhibition of TPA induced proliferation. After 48 hours a preditermined quantity concentration of the test compounds was added to the cells as well as 0.5um of TPA. […] Inhibition of TPA induced proliferation. After 48 hours a predetermined quantity concentration of the test compounds was added to the cells for 24 hours, at 72 hours the media was changed again to contain both test compound and 0.5µM of the TPA. The objective of this experiment was to observe whether the prior incubation with the test compound had any effect on the TPA induced proliferation of the cells.

Female CD1 mice = assay: Topical chemical erythema: inhibition of TPA induced erythema on the mouse ear; format: in vivo; conditions: for ED50 (dose required to inhibit erythema in at least 50% of the animals): applied to the right ear in 5µl, 20 minutes prior to TPA (0.1µg/5µl); for inhibition of chemically induced (TPA) erythema on the mouse ear, result in words: comparison among extracts or among the three chalcones
Procedure: Ref. Williamson E.M. and Evans F. (1981), Inhibition of erythema induced by proinflammatory esters of 12-deoxyphorbol. Acta Pharmacol. Toxicol.,48, 47-52
Female CD1 mice, weighing approximately 20g were used. • 2. Test plant extracts as produced in Example 1 were applied externally to the right ear of each mouse, at predetermined concentrations in 5µl quantities, 20 minutes prior to the application of the irritant compound 12-O-tetradecanoylphorbal-13-acetate (TPA)(0.1µg/5µl). • 3. A […] response was indicated by redness and inflammation of the ear. • 4. Observations were recorded at 2,3,4,6,7, and 24 hours after the application of TPA. Maximum inflammation caused by TPA alone occurs at 6 hours after the application of TPA.
Erythema of the mouse ear is the simplest experiment to perform as mice have translucent ears in which reddening is easily visible. Quantification is subjective, however the erythema can be described as pronounced, slight or absent. • Isoliquiritigenin ED50 (dose required to inhibit erythema in at least 50% of the animals) 20-50,µg • Licochalcone B ED50 5-10µg • Echinatin ED50 5-10µg

[2] = test system: swiss 3T3 mouse fibroblast cells; assay: Cell culture 3[H] thymidine assay, Example 6.1 cytotoxicity testing (normal cell growth); format: cell-based; conditions: for Percentage Inhibition of 3T3 Swiss Fibroblast Growth, Example 6.1: cytotoxicity, no TPA
Procedure: as §1, §2

[3] = test system: swiss 3T3 mouse fibroblast cells; assay: Cell culture 3[H] thymidine assay, Example 6.2 inhibition of TPA induced proliferation (compound added together with TPA); format: cell-based; conditions: with 0.5µM TPA
Procedure: as §1, §2

male Wistar rats = assay: UV-B induced erythema (dermatitis) in rat, epidermal thickness and number of epidermal cell layers; format: in vivo; conditions: five days; for No. of cells (epidermal proliferation as compared to the control, no treatment) / Thickness (epidermal thickening as compared to the control, no treatment): control = 100; for Percentage inhibition of epidermal proliferation (No. of cells, in brackets) / Percentage inhibition of epidermal thickening (in brackets): UV Exposure + Active Compound versus UV Exposure
Procedure: Rat UV-B induced dermatitis is characterised by a brownish red lesion with scab formation. Histologically, microvascular dilation, intraepidermal accumulation ofleukocytes and hyperproliferation of epidermal cells are all very similar to the symptoms of psoriasis in man (Nakaguma,H., Int. J.ofExp.Path, 76:65-73, 1995) • 1. Hair on the dorsal skin of male Wistar rats (180g) was clipped and shaved, whilst the rats were under anaesthesia, 24 hours prior to the experiment. • 2. The rats were covered by a black plastic sheeting, with two rectangular holes (about 1cm^2) cut out, thus allowing two exposure sites on the dorsal skin whilst protecting the rest of the animal. • 3. The rats were then exposed to UV-B light (302nm) at a distance of 10cm for six minutes and thirty seconds. The total W-B exposure was 2.4J/cm^2 as measured using a UV-X radiometer. • 4. The test compound was then placed onto one of the exposed areas and an unexposed area at a concentration of 100µg/5µl, in a suitable vehicle solution. • 5. Application of the test compound was repeated for five days. • 6. Histological post-mortem sections were taken on the fifth day, and stained using haematoxylin and eosin. The number ofepidermal cell layers and the epidermal thickness was counted and measured at random. Five animals were used per test group.

platelet aggregation = conditions: in rats, compared with aspirin; cited from earlier work
[4] = test system: human polymorphonuclear neutrophils; conditions: properties associated with inflammatory processes; cited from earlier work
platelets = conditions: cited from earlier work
[5] = Conc. 10µg test compound in 500µl PRP
[6] = Conc. 50µg test compound in 500µl PRP
[7] = Active Compound Only, unexposed area, 100µg/5µl
[8] = UV Exposure + Active Compound, 100µg/5µl topical

Compound	Percentage Inhibition of ADP Induced Aggregation (Blood platelets; [5])	Percentage Inhibition of ADP Induced Aggregation (Blood platelets; [6])	Percentage Inhibition of TPA Induced Aggregation (Blood platelets; [6])	Percentage Inhibition of 3T3 Swiss Fibroblast Growth, Example 6.3 ([1]; Concentration 1 µg)	Percentage Inhibition of 3T3 Swiss Fibroblast Growth, Example 6.3 ([1]; Concentration 10 µg)	Percentage Inhibition of 3T3 Swiss Fibroblast Growth, Example 6.3 ([1]; Concentration 20 µg)	ED50 (dose required to inhibit erythema in at least 50% of the animals) (Female CD1 mice)	inhibition of chemically induced (TPA) erythema on the mouse ear, result in words (Female CD1 mice)	Percentage Inhibition of 3T3 Swiss Fibroblast Growth, Example 6.1 ([2]; Concentration 1 µg)	Percentage Inhibition of 3T3 Swiss Fibroblast Growth, Example 6.1 ([2]; Concentration 10 µg)	Percentage Inhibition of 3T3 Swiss Fibroblast Growth, Example 6.1 ([2]; Concentration 20 µg)	Percentage Inhibition of 3T3 Swiss Fibroblast Growth, Example 6.2 ([3]; Concentration 1 µg)	Percentage Inhibition of 3T3 Swiss Fibroblast Growth, Example 6.2 ([3]; Concentration 10 µg)	Percentage Inhibition of 3T3 Swiss Fibroblast Growth, Example 6.2 ([3]; Concentration 20 µg)	No. of cells (epidermal proliferation as compared to the control, no treatment) (male Wistar rats; [7])	Thickness (epidermal thickening as compared to the control, no treatment) (male Wistar rats; [7])	Percentage inhibition of epidermal proliferation (No. of cells, in brackets) (male Wistar rats; 100µg/5µl)	Percentage inhibition of epidermal thickening (in brackets) (male Wistar rats; 100µg/5µl)	No. of cells (epidermal proliferation as compared to the control, no treatment) (male Wistar rats; [8])	Thickness (epidermal thickening as compared to the control, no treatment) (male Wistar rats; [8])	also measured
COc1cc(O)ccc1/C=C/C(=O)c1ccc(O)cc1 [Echinatin, echinatin]	13%	14%	6%	65%	96%	96%	5 to 10 µg	most effective	85%	94%	99%	42%	98%	99%	–	–	–	–	–	–	Percentage Inhibition of 3T3 Swiss Fibroblast Growth, Example 6.1 ([2]; Concentration 1 µg, listed as echinatin): up to 82%; EC50 ([2]; Mus musculus, normal cell growth of 3T3 cells, exact value not established): 0.1 to 1 µg/mL (≈ 0.37 to 3.7 µM)
O=C(/C=C/c1ccc(O)cc1)c1ccc(O)cc1O [Isoliquiritigenin, isoliquiritigenin]	20%	26%	13%	50%	47%	61%	20 to 50 µg	–	32%	32%	54%	4%	28%	29%	103%	102%	(77) %	(71) %	119%	116%	Percentage Inhibition of TPA Induced Aggregation (Blood platelets; [5]): 3%; inhibiting blood platelet aggregation, result in words (Blood platelets; comparison among the three chalcones, especially ADP induced aggregation): most active; Percentage Inhibition of 3T3 Swiss Fibroblast Growth, Example 6.3 ([1]; Concentration 0.01 µg): 31%; Percentage Inhibition of 3T3 Swiss Fibroblast Growth, Example 6.3 ([1]; Concentration 0.1 µg): 39%; Percentage Inhibition of 3T3 Swiss Fibroblast Growth, Example 6.1 ([2]; Concentration 0.01 µg): 20%; Percentage Inhibition of 3T3 Swiss Fibroblast Growth, Example 6.1 ([2]; Concentration 0.1 µg): 18%; Percentage Inhibition of 3T3 Swiss Fibroblast Growth, Example 6.2 ([3]; Concentration 0.01 µg): 6%; Percentage Inhibition of 3T3 Swiss Fibroblast Growth, Example 6.2 ([3]; Concentration 0.1 µg): +4%; level of inhibition of platelet aggregation (platelet aggregation): comparable to aspirin; effect on degranulation in human polymorphonuclear neutrophils [4]: had no effect
COc1c(/C=C/C(=O)c2ccc(O)cc2)ccc(O)c1O [Licochalcone B, licochalcone B]	–	15%	13%	22%	69%	85%	5 to 10 µg	most effective	41%	55%	86%	31%	32%	73%	103%	96%	(83) %	(75) %	129%	135%	Percentage Inhibition of TPA Induced Aggregation (Blood platelets; [5]): 4%; Percentage Inhibition of 3T3 Swiss Fibroblast Growth, Example 6.3 ([1]; Concentration 0.01 µg): 2%; Percentage Inhibition of 3T3 Swiss Fibroblast Growth, Example 6.3 ([1]; Concentration 0.1 µg): 37%; Percentage Inhibition of 3T3 Swiss Fibroblast Growth, Example 6.1 ([2]; Concentration 0.01 µg): 16%; Percentage Inhibition of 3T3 Swiss Fibroblast Growth, Example 6.1 ([2]; Concentration 0.1 µg): 13%; Percentage Inhibition of 3T3 Swiss Fibroblast Growth, Example 6.2 ([3]; Concentration 0.01 µg): +26%; Percentage Inhibition of 3T3 Swiss Fibroblast Growth, Example 6.2 ([3]; Concentration 0.1 µg): 17%; effect on degranulation in human polymorphonuclear neutrophils [4]: had an effect
CCCCCCCCCCCCCC(=O)O[C@@H]1[C@@H](C)[C@@]2(O)[C@@H](C=C(CO)C[C@]3(O)C(=O)C(C)=C[C@@H]23)[C@@H]2C(C)(C)[C@]12OC(C)=O [TPA, 12-O-tetradecanoylphorbol-13-acetate]	–	–	–	–	–	–	–	–	–	–	–	–	–	–	–	–	–	–	–	–	concentration causing irreversible platelet aggregation (platelets): 0.2 µM
